The results in this text go back to PubChem BioAssay (NCI).

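Step 1: Grow cells in 96-well plates. Step 2: Expose to compound for 48 hours at 5 concentrations. Step 3: Interpolate endpoints linearly; if unreached, use highest concentration. Abbreviation: GI50, concentration required for 50% inhibition of growth. The concentration for full growth arrest is given as TGI.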

Some test systems named below: A498 renal; BT-549 breast; CCRF-CEM leukemia; HS 578T breast; IGROV1 ovarian; KM12 colon; LOX IMVI melanoma; MDA-MB-231 breast; NCI-H522 lung; NCI/ADR-RES ovarian; RXF 393 renal; SF-268 CNS.
Experiment in all cases: inhibition of tumour cell growth, NCI panel, 48 h

As to `C=C1c2ccccc2C(=O)c2c1c1c(C(=O)OC)c(O)ccc1n2Cc1ccccc1`, the TGI in the assay with A498 renal was 2.27 µM; in the assay with BT-549 breast it was 1.69 µM; in the assay with CCRF-CEM leukemia, 0.74 µM; with HS 578T breast it was 1.73 µM; with IGROV1 ovarian, 0.799 µM; in the assay on KM12 colon it was 1.7 µM. Moreover, the TGI with LOX IMVI melanoma was found to be 0.628 µM; in the assay on MDA-MB-231 breast it was 1.54 µM; with NCI-H522 lung, 0.795 µM; with NCI/ADR-RES ovarian, 0.723 µM; in the assay on RXF 393 renal, 0.976 µM; in the assay on SF-268 CNS it was 0.518 µM.

As for `CCOC(=O)C1=C(C)OC2(O)C=CC(O)=C3C(=O)N(c4ccccc4)C(=O)C312` (stereo unspecified), the TGI is 70.5 µM in the assay with BT-549 breast; 61.7 µM with HS 578T breast; 68.2 µM in the assay on IGROV1 ovarian; more than 100 µM in the assay on KM12 colon; 52.9 µM with LOX IMVI melanoma; more than 100 µM in the assay with MDA-MB-231 breast. Also, the TGI in the assay with NCI-H522 lung was 35.6 µM; with NCI/ADR-RES ovarian, more than 100 µM; in the assay with RXF 393 renal, 47.7 µM; with SF-268 CNS, more than 100 µM.

As for `Nc1ncnc2c1ncn2C=C=CCO`, the TGI in the assay on A498 renal, in the assay with BT-549 breast, in the assay on CCRF-CEM leukemia, in the assay on HS 578T breast, in the assay on KM12 colon and in the assay on LOX IMVI melanoma was more than 100 µM in each case. For the same compound, the TGI in the assay on MDA-MB-231 breast, in the assay on NCI/ADR-RES ovarian and with RXF 393 renal was more than 100 µM each time.

As to `NN(CC(=O)O)CC(=O)O`, the TGI in the assay on A498 renal, with BT-549 breast, with CCRF-CEM leukemia, in the assay on HS 578T breast, with IGROV1 ovarian and in the assay on KM12 colon was more than 100 µM throughout. In addition, the TGI with LOX IMVI melanoma, in the assay on MDA-MB-231 breast, with NCI-H522 lung, in the assay on NCI/ADR-RES ovarian and with SF-268 CNS was more than 100 µM in each case.

As to `CN1CCc2[nH]c3ccccc3c2C1`, the TGI in the assay on A498 renal, in the assay on CCRF-CEM leukemia, in the assay on IGROV1 ovarian, in the assay on KM12 colon, in the assay on LOX IMVI melanoma and in the assay on NCI-H522 lung was more than 100 µM throughout. The TGI in the assay with NCI/ADR-RES ovarian, in the assay on RXF 393 renal and in the assay on SF-268 CNS was more than 100 µM each time.

For the compound `CCCCCCCCCCCCCCCCCCOc1ccccc1CC(=O)OCC[N+]1(C)CCCCC1`, the GI50 was 2.53 µM in the assay with A498 renal; 2.65 µM in the assay with BT-549 breast; 1.96 µM with CCRF-CEM leukemia; 2.32 µM in the assay on HS 578T breast; 1.75 µM with LOX IMVI melanoma; 1.83 µM in the assay on MDA-MB-231 breast. In the assay on NCI/ADR-RES ovarian, the GI50 was 14.9 µM. The TGI was 9.71 µM in the assay on A498 renal; 7.1 µM in the assay with BT-549 breast; 4.63 µM in the assay with CCRF-CEM leukemia; 6.53 µM in the assay with HS 578T breast; 3.18 µM with LOX IMVI melanoma; 3.89 µM in the assay with MDA-MB-231 breast. In addition, the TGI with NCI/ADR-RES ovarian worked out at 46.6 µM.

As to `O=C(Nc1ccc(Cl)cc1)c1cc2cc(N=Nc3ccccc3Cl)ccc2oc1=O`, the TGI is 5.38 µM in the assay on CCRF-CEM leukemia; 48.1 µM in the assay with IGROV1 ovarian; 53.2 µM in the assay on NCI-H522 lung; more than 100 µM with RXF 393 renal; more than 100 µM in the assay with SF-268 CNS.

In the case of `O=C([O-])C[n+]1ccccc1`, the TGI in the assay with A498 renal, in the assay on BT-549 breast, in the assay on CCRF-CEM leukemia, in the assay with HS 578T breast, with IGROV1 ovarian and in the assay on KM12 colon was more than 100 µM in each case. Further, the TGI in the assay with LOX IMVI melanoma, with MDA-MB-231 breast, in the assay with NCI-H522 lung, with NCI/ADR-RES ovarian, in the assay with RXF 393 renal and in the assay with SF-268 CNS was more than 100 µM in each case.

`COc1cc2c(c(O)c1OC)-c1c(cc(OC)c(OC)c1OC)CC(C)C(C)C2` (stereo unspecified): the TGI was more than 100 µM in the assay with A498 renal; more than 100 µM in the assay on BT-549 breast; 62.1 µM in the assay on CCRF-CEM leukemia; more than 100 µM in the assay on HS 578T breast; more than 100 µM in the assay with IGROV1 ovarian; more than 100 µM with KM12 colon. In addition, the TGI in the assay with LOX IMVI melanoma, with MDA-MB-231 breast, in the assay on NCI-H522 lung, with RXF 393 renal and in the assay on SF-268 CNS was more than 100 µM each time.

Turning to `CN1CCOC(c2ccc(Cl)cc2)O1` (stereo unspecified), the TGI in the assay on A498 renal, with BT-549 breast, with CCRF-CEM leukemia, in the assay on IGROV1 ovarian, with KM12 colon and in the assay with MDA-MB-231 breast was more than 100 µM throughout. In addition, the TGI in the assay on NCI-H522 lung, in the assay with NCI/ADR-RES ovarian, with RXF 393 renal and in the assay with SF-268 CNS was more than 100 µM each time.

In the case of `CC(C)=CCC/C(C)=C/CC/C(C)=C/CC/C(C)=C/C=C/C=C(\C)CC/C=C(\C)CC/C=C(\C)CCC=C(C)C`, the TGI in the assay on A498 renal is more than 100 µM; in the assay with BT-549 breast, more than 100 µM; with CCRF-CEM leukemia, 59.8 µM; with HS 578T breast, more than 100 µM; in the assay on IGROV1 ovarian, 36.4 µM; in the assay on KM12 colon, 63.3 µM. The TGI in the assay on LOX IMVI melanoma was 49.9 µM; in the assay with MDA-MB-231 breast it was more than 100 µM; with NCI-H522 lung, 31.4 µM; with NCI/ADR-RES ovarian, more than 82.9 µM; in the assay with RXF 393 renal, more than 100 µM; in the assay with SF-268 CNS it was more than 81.4 µM.

With `O=C(O)c1cc([N+](=O)[O-])cc2c(=O)c3cnccc3[nH]c12`, the TGI in the assay with A498 renal, with BT-549 breast, with CCRF-CEM leukemia, in the assay on HS 578T breast, in the assay on IGROV1 ovarian and with KM12 colon was more than 100 µM throughout. The TGI in the assay on MDA-MB-231 breast, in the assay on NCI-H522 lung, in the assay on NCI/ADR-RES ovarian and in the assay on RXF 393 renal was more than 100 µM throughout.

In the case of `CN(C)CCCSc1nc2ccccc2[nH]1`, the TGI with A498 renal, with BT-549 breast, with HS 578T breast, in the assay on IGROV1 ovarian, in the assay on KM12 colon and in the assay with LOX IMVI melanoma was more than 100 µM each time. The TGI with MDA-MB-231 breast, with NCI-H522 lung, in the assay with NCI/ADR-RES ovarian, with RXF 393 renal and in the assay with SF-268 CNS was more than 100 µM in each case.
